Source: patent US20110143948A1, “MOLECULAR SIGNATURES AND BIOMARKERS ASSOCIATED WITH MELANOMA AND METHODS OF USE THEREOF” (priority 2008, published 2011)

Test system: ncRNAs (SEQ ID NO 28-89)
Assay: ncRNA arrays of melanocytes, keratinocytes, normal skin, melanoma cell lines and patient samples
Parameters: species or system human
Settings: for ncRNA array expression, patient 2: melanoma patient 2 sample compared to normal skin; for ncRNA array expression, patient 3: melanoma patient 3 sample compared to normal skin; for ncRNA array expression, patient 4: melanoma patient 4 sample compared to normal skin; for ncRNA array expression, patient 5: melanoma patient 5 sample compared to normal skin; for ncRNA array expression, patient 6: melanoma patient 6 sample compared to normal skin; for ncRNA array expression, patient 7: melanoma patient 7 sample compared to normal skin; for ncRNA array expression, patient 8: melanoma patient 8 sample compared to normal skin; for ncRNA array expression, patient 9: melanoma patient 9 sample compared to normal skin; for ncRNA array expression, patient 10: melanoma patient 10 sample compared to normal skin; for ncRNA array expression, patient 19: melanoma patient 19 sample compared to normal skin; for ncRNA array expression, patient 20: melanoma patient 20 sample compared to normal skin; for ncRNA array expression, patient 21: melanoma patient 21 sample compared to normal skin; for ncRNA array expression, patient 22: melanoma patient 22 sample compared to normal skin; for ncRNA array expression, patient 23: melanoma patient 23 sample compared to normal skin; for ncRNA array expression, patient 24: melanoma patient 24 sample compared to normal skin; for ncRNA array expression, patient 25: melanoma patient 25 sample compared to normal skin; for ncRNA array expression, patient 26: melanoma patient 26 sample compared to normal skin; for ncRNA array expression, patient 27: melanoma patient 27 sample compared to normal skin; for ncRNA array expression, patient 28: melanoma patient 28 sample compared to normal skin; for ncRNA array expression, patient 29: melanoma patient 29 sample compared to normal skin; for ncRNA array expression, patient 30: melanoma patient 30 sample compared to normal skin
Procedure, shortened: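 Total RNA from melanocytes, keratinocytes, normal human skin, melanoma cell lines and melanoma patient samples was profiled on an array of >10,000 putative (>200 nt) human and mouse ncRNAs plus RefSeq mRNA probes. Expression was compared with melanocytes or normal skin, keratinocyte signatures were subtracted, and hits were validated by qRT-PCR and Northern blot.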

Substance	ncRNA array expression, patient 2	ncRNA array expression, patient 3	ncRNA array expression, patient 4	ncRNA array expression, patient 5	ncRNA array expression, patient 6	ncRNA array expression, patient 7	ncRNA array expression, patient 8	ncRNA array expression, patient 9	ncRNA array expression, patient 10	ncRNA array expression, patient 19	ncRNA array expression, patient 20	ncRNA array expression, patient 21	ncRNA array expression, patient 22	ncRNA array expression, patient 23	ncRNA array expression, patient 24	ncRNA array expression, patient 25	ncRNA array expression, patient 26	ncRNA array expression, patient 27	ncRNA array expression, patient 28	ncRNA array expression, patient 29	further results
SEQ ID NO 82 (GAAGTCAGAAACTAAAGTTCCCTTCTAAGACAAAATCCTGCTTTGGAGAAAAAAAAAAAT; listed as DNA, chemistry not given here; listed as Homo sapiens)	−3.153	−2.943	−3.11	−2.733	−1.179	−3.133	−2.955	−3.056	−3.4499	−3.347	−3.111	−3.1409	−2.791	−3.009	−3.02	−3.428	−3.448	−3.18	−3.348	−3.301	ncRNA array expression, patient 30: −2.485
SEQ ID NO 71 (AAAATTCCAAGAGGGCCTTTTCGAATAGACGCATGAACGGTGTTTGTGTCTGGATCGTCC; listed as DNA, chemistry not given here; listed as Homo sapiens)	0.7413	0.6126	1.336	2.628	1.002	1.936	0.7221	0.1592	1.787	3.439	1.577	1.245	1.105	0.258	2.527	2.034	1.058	1.849	0.926	2.387	ncRNA array expression, patient 30: −2.464
SEQ ID NO 76 (TGTTTCTAATGCATACTGTGAAAGGAAAAAAAATCACAGTTATCCACCTTCTCAGGGCCT; listed as DNA, chemistry not given here; listed as Homo sapiens)	−1.682	−1.051	−1.297	−1.036	0.3953	−1.741	−1.681	−1.284	−0.6169	−0.775	−1.184	−1.216	−0.05441	0.7328	−1.262	−1.549	−1.597	−1.555	−1.598	−1.765	ncRNA array expression, patient 30: 0.4068
SEQ ID NO 55 (CCTCTCCCCTTCTTGCAAAAAATATTCTATATTCAAGTTTAGGAGAAAACAGAATACTTG; listed as DNA, chemistry not given here; listed as Homo sapiens)	−1.54	−1.638	−1.747	−1.565	−1.135	−1.9789	−1.065	−2.029	−1.191	−1.029	−1.812	−2.321	−1.439	−1.275	−1.478	−2.11	−2.186	−2.019	−2.043	−2.155	ncRNA array expression, patient 30: −0.5021
SEQ ID NO 75 (CAAGTGGGAAGAAAAAGAGCCCTACGTGGTGACATTCTGGAAGGATATCATGGATGATTG; listed as DNA, chemistry not given here; listed as Homo sapiens)	0.5875	0.2177	1.062	1.072	1.853	2.114	2.605	1.117	0.6968	1.219	2.945	1.592	1.681	1.545	2.209	−0.3024	0.226	3.291	1.546	2.221	ncRNA array expression, patient 30: −1.4645
SEQ ID NO 88 (CTGTTGCTTATTCTGGGAGCCCAATCCTAGGCTGAGGGAGGTGGGCGCGGGGCTGTTTAA; listed as DNA, chemistry not given here; listed as Homo sapiens)	−1.501	−1.118	−1.158	−1.192	−0.882	−1.165	−1.206	−1.551	−1.883	−0.5619	−1.6443	−1.527	−0.8009	−0.3034	−1.128	−1.933	−1.942	−2.173	−1.861	−2.1207	ncRNA array expression, patient 30: 0.7208
